Drawing on article PMC6107785, “Thiodipeptides targeting the intestinal oligopeptide transporter as a general approach to improving oral drug delivery” (European Journal of Medicinal Chemistry, 2018), this text covers Tmax, AUC and Cmax for one compound.

As usually defined, the Tmax is the time at which the peak concentration occurs. As usually defined, the AUC is concentration integrated over time. A higher AUC goes with high exposure. The Cmax is the highest concentration seen after dosing.

Like-named read-outs stand apart in the source and are kept apart here.

For data set [1] the following is noted: male, Sprague-Dawley, rat, in vivo, po, 6 mg/kg.
Experimental: (§1) Animals were given free access to food and water throughout the study and maintained under a 12-h light/dark cycle with temperature and humidity controlled according to Home Office regulations.
(§2) Blood samples (230 μL) were taken from the carotid artery at the following time points and placed in heparinized tubes: predose, 0.25, 0.5, 1, 2, 4, 8 and 24 h post dose. After the final time point the animals were sacrificed by an overdose of anaesthetic.
(§3) Blood samples were centrifuged to obtain the plasma, which was transferred to a separate labelled container. Aliquots from the individual time points for the three animals were analyzed singly. 80 μL of plasma was diluted with 20 μL of 1:1 ACN:water, then 800 μL chilled ACN was added, samples briefly vortex mixed and the centrifuged at 13000 rpm for 5 min at 4 °C. 500 μL of the resultant supernatant was further diluted with 500 μL water.
(§4) 20 μL sample was analyzed by LC-MS/MS using a C18 5 μm Gemini UHPLC column running a gradient of 90% 0.04% acetic acid in water to 90% ACN over 3 min at a flow rate of 0.5 mL min^−1. MS data was acquired under multiple reaction monitoring conditions using a turbo spray ion source. The concentration in the plasma was determined by comparison to standard curves of the administered compound prepared in blank plasma matrices and treated in an identical manner to the samples.
Data set [2] in a line: in vivo. The settings on record: male, Sprague-Dawley, rat, po, 6 mg/kg.
Experimental: as §1, §2, §3, §4

Regarding `CC(C)Cc1ccc(C(C)C(=O)O)cc1` (stereo not shown) [Ibuprofen], the time to peak (Tmax) was determined as 0.7 ± 0.3 h in data set [1] and 1 h in data set [2] (tmax). For the same compound, in data set [2], the AUC is 14000 ± 1800 ng·h/mL. Besides, the Cmax in data set [2] (CMax) was 5700 ± 600 ng/mL.
